Patent publication US20170273916A1, “METHODS FOR TREATING AND PREVENTING NEURODEGENERATIVE DISEASES” (priority 2016, published 2017)
Converted amounts (≈) assume the structure as drawn. “Also recorded” adds a separate entry of the source.

What was measured:
[1] = tested on: NGF-induced PC12 cells; assay: Viability of NGF-induced PC12 cells treated with extracts and compounds (CCK-8 assay); type: cell-based; conditions: Rattus norvegicus, PC-12, 24 hr incubation, CCK-8, FIGS. 1A-1E, read-out: IC50 (cell viability)
Protocol: PC12 cells were cultured in RPMI 1640 medium (5% fetal bovine serum, 10% heat-inactivated horse serum, 2 mM glutamine, 50 U/mL penicillin, […] streptomycin), at 37° C., 5% CO2, subculture twice a week.
PC12 cells need to be cultured in medium containing Nerve growth factor (NGF) 2.5S, (100 ng/mL) in advance for NGF-induced neuronal differentiation.
Cell Counting Kit-8(CCK-8) allows sensitive colorimetric assays for the determination of cell viability in cell proliferation and cytotoxicity assays. Dojindo's highly water-soluble tetrazolium salt, WST-8, is reduced by dehydrogenase activities in cells to give a yellow-color formazan dye, which is soluble in the tissue culture media. The amount of the formazan dye, generated by the activities of dehydrogenases in cells, is directly proportional to the number of living cells. The detection sensitivity of CCK-8 is higher than the other tetrazolium salts such as MTT, XTT, MTS or WST-1.
To optimize the exemplary extracts (ANCA, ANCA-D) and compounds (Antrocamol LT1, LT2, LT3) concentration for NGF-induced PC12 neural model, titration experiments were performed to determine the IC50 values of extracts and compounds. 5 x 10^4 NGF-induced PC12 cells were cultured in 96-well dish for 24 hr. Then the cells were cultured in medium with 1% fetal bovine serum, 2% heat-inactivated horse serum, 2 mM glutamine, 50 U/mL penicillin, […] streptomycin RPMI 1640 medium, then various concentrations of extracts [ANCA, ANCA-D (0.064, 0.32, 1.6, 8, 40, 200 μg/mL)] and compounds [Antrocamol LT1, LT2, LT3 (0.032, 0.16, 0.8, 4, 20, 100 μg/mL) were added individually and incubated for 24 hr. After treatment, the CCK-8 solution was added to each well of plates and incubates the plates for 4 hr in the incubator. The concentration of the formazan product was determined spectrophotometrically at an absorbance wavelength 450 nm and cell viability was expressed as a percentage of the corresponding control.

[2] = tested on: Aβ-induced PC12 cell model; assay: Prophylactic effect on Aβ-induced PC12 AD cell model (sample pretreatment, then aggregated Aβ; CCK-8 cell viability); type: cell-based, rat; conditions: sample 24 h, then aggregated Aβ 24 h; for prophylactic effect on AD cell model (preventing Aβ-induced neuronal damage, cell viability): FIGS. 3A-3E, concentration not given
Protocol: (§1) β-Amyloid 1-40 (Aβ) was dissolved in 0.1% (v/v) trifluoroacetic acid (TFA) in water at 10 mg/ml and stored at −20° C. as a stock solution. Af3 was diluted to 0.5 mg/ml with phosphate-buffered saline solution (PBS, without Ca2+) and aggregate at 25° C. for 48 hr before use. To investigate the therapeutic effect of extracts (ANCA, ANCA-D) and compounds (Antrocamol LT1, LT2, LT3) on Alzheimer disease (AD) cell model in vitro, cultures were pretreated with Aβ for 24 h and then exposed to freshly prepared extracts (ANCA, ANCA-D) and compounds (Antrocamol LT1, LT2, LT3) for 24 hr before cell viability measurements. In contrast, to investigate the prophylactic effect of extracts (ANCA, ANCA-D) and compounds (Antrocamol LT1, LT2, LT3) on AD cell model, cultures were pretreated with extracts (ANCA, ANCA-D) and compounds (Antrocamol LT1, LT2, LT3) for 24 h and then exposure to aggregated Aβ for 24 h before cell viability measurements. The cell viability was estimated by below formulation:
(§2) Cell viability (%)=(Sample-Blank)/(Control-Blank)×100%

[3] = tested on: Aβ-induced PC12 cell model; assay: Therapeutic effect on Aβ-induced PC12 AD cell model (Aβ pretreatment, then sample; CCK-8 cell viability); type: cell-based, rat; conditions: Aβ 24 h, then sample 24 hr; for therapeutic effect on AD cell model (inhibition of Aβ-induced damage, cell viability): FIGS. 2A-2E, concentration not given
Protocol: as §1, §2

SMILES	IC50 [1] [µg/mL]	prophylactic effect compared with extracts ([2]; 100 μg/mL, 50 μg/mL, 25 μg/mL)	prophylactic effect on AD cell model (preventing Aβ-induced neuronal damage, cell viability) [2]	inhibitory effect on Aβ-induced damage (therapeutic) ([3]; 25 μg/mL)	inhibitory effect on Aβ-induced damage (therapeutic) ([3]; 50 μg/mL)	inhibitory effect on Aβ-induced damage (therapeutic) ([3]; 100 μg/mL)	therapeutic effect on AD cell model (inhibition of Aβ-induced damage, cell viability) [3]
COC1=C(OC)[C@H](O)[C@H](C/C=C(\C)CC/C=C(\C)CC(O)C=C(C)C)[C@@H](C)C1=O (stereo partly shown) [LT1, 4-hydroxy-5-[9-hydroxy-3,7,11-trimethyldodeca-2,6,10-trienyl]-2,3-dimethoxy-6-methyl-cyclohex-2-enone]	178 (≈ 439 µM)	better prophylactic effect than extracts	significant impact in preventing	weak	significant inhibitory effect	significant inhibitory effect	significantly inhibited Aβ-induced damage and improved the cell viability
COC1=C(OC)[C@H](OC(C)=O)[C@H](C/C=C(\C)CC/C=C(\C)CC(O)C=C(C)C)[C@@H](C)C1=O (stereo partly shown) [LT2, 4-acetoxy-5-[9-hydroxy-3,7,11-trimethyldodeca-2,6,10-trienyl]-2,3-dimethoxy-6-methyl-cyclohex-2-enone]	168 (≈ 376 µM)	–	significant impact in preventing; also recorded: weak preventing effect	weak	significant inhibitory effect	significant inhibitory effect	significantly inhibited Aβ-induced damage and improved the cell viability
COC1=C(OC)[C@H](O)[C@H](C/C=C(\C)CC/C=C(\C)C/C=C/C(C)(C)O)[C@@H](C)C1=O [LT3, (4R,5R,6R)-4-hydroxy-5-[(2E,6E,9E)-11-hydroxy-3,7,11-trimethyldodeca-2,6,9-trienyl]-2,3-dimethoxy-6-methylcyclohex-2-enone]	106 (≈ 259 µM)	–	significant impact in preventing; also recorded: weak preventing effect	weak	significant inhibitory effect	significant inhibitory effect	significantly inhibited Aβ-induced damage and improved the cell viability
